Structures are written as SMILES.

The subject of data set [1] is Echinochloa crus-galli (ECHCG). Briefly: Example B post-emergence herbicidal activity, glasshouse pot test. It counts as in vivo. Conditions: 312 h, rate 250 g/ha, evaluated after 13 days, read-out: Post-emergence activity ECHCG (100=total damage to plant; 0=no damage to plant). Summed up:
(§1)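 Damage rated 13 days after treatment on a 0 (no damage) to 100 (total damage) scale. Spray of acetone/water (50:50) with 0.5% Tween 20 went onto soil-sown pots at day 1 (pre-emergence) or day 8 (post-emergence); glasshouse kept at 24/16 °C, 14 h light, 65% humidity.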

Data set [2] concerns Setaria faberi (SETFA). The data set is described as above. It counts as in vivo. The settings on record: 312 h, rate 250 g/ha, evaluated after 13 days, read-out: Post-emergence activity SETFA (100=total damage to plant; 0=no damage to plant). Summed up:
as §1

In data set [3] the test system is Alopecurus myosuroides (ALOMY). The description is as above. It counts as in vivo. The settings on record: 312 h, rate 250 g/ha, evaluated after 13 days, read-out: Post-emergence activity ALOMY (100=total damage to plant; 0=no damage to plant). In outline:
as §1

For data set [4], the system named is Amaranthus retroflexus (AMARE). Described as above. It counts as in vivo. The settings on record: 312 h, rate 250 g/ha, evaluated after 13 days, read-out: Post-emergence activity AMARE (100=total damage to plant; 0=no damage to plant). Summed up: as §1
Data set [5] concerns Avena fatua (AVEFA). The data set is described as above. The class given is in vivo. Conditions: 312 h, rate 250 g/ha, evaluated after 13 days, read-out: Post-emergence activity AVEFA (100=total damage to plant; 0=no damage to plant). Summed up: as §1
Data set [6] concerns Echinochloa crus-galli (ECHCG). The data set is described as follows: Example B pre-emergence herbicidal activity, glasshouse pot test. It counts as in vivo. Conditions: 312 h, rate 250 g/ha, evaluated after 13 days, read-out: Pre-emergence activity ECHCG (100=total damage to plant; 0=no damage to plant). Summed up:
as §1

The test system of data set [7] is Setaria faberi (SETFA). The description is as above. The class given is in vivo. Conditions: 312 h, rate 250 g/ha, evaluated after 13 days, read-out: Pre-emergence activity SETFA (100=total damage to plant; 0=no damage to plant). In outline: as §1
For data set [8], the system named is Alopecurus myosuroides (ALOMY). The data set is described as above. It counts as in vivo. Conditions: 312 h, rate 250 g/ha, evaluated after 13 days, read-out: Pre-emergence activity ALOMY (100=total damage to plant; 0=no damage to plant). In outline: as §1
Data set [9] deals with Amaranthus retroflexus (AMARE). Described as above. It counts as in vivo. Conditions: 312 h, rate 250 g/ha, evaluated after 13 days, read-out: Pre-emergence activity AMARE (100=total damage to plant; 0=no damage to plant). In outline: as §1
The subject of data set [10] is Avena fatua (AVEFA). The data set is described as above. Conditions: 312 h, rate 250 g/ha, evaluated after 13 days, read-out: Pre-emergence activity AVEFA (100=total damage to plant; 0=no damage to plant). The class given is in vivo. Summed up: as §1
The test system of data set [11] is Echinochloa crus-galli (ECHCG). The data set is described as follows: Example A pre-emergence herbicidal activity, glasshouse pot test. The settings on record: 480 h, rate 250 g/ha, evaluated 20 days after spraying, read-out: Pre-emergence activity ECHCG (100=total damage to plant; 0=no damage to plant). It counts as in vivo. Summed up: (§2)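 Pots sown with test species were sprayed 1 day after sowing (pre-emergence) or at 10 days post-sowing (post-emergence) with the technical ingredient dissolved in acetone and diluted via emulsifier/solvent formulation. After 20 days (pre) or 15 days (post), effect was rated from 0 (no damage) to 100 (total damage).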

Data set [12] has as its system Setaria faberi (SETFA). The data set is described as above. It counts as in vivo. Conditions: 480 h, rate 250 g/ha, evaluated 20 days after spraying, read-out: Pre-emergence activity SETFA (100=total damage to plant; 0=no damage to plant). In outline: as §2
Data set [13] concerns Alopecurus myosuroides (ALOMY). Described as above. It counts as in vivo. The settings on record: 480 h, rate 250 g/ha, evaluated 20 days after spraying, read-out: Pre-emergence activity ALOMY (100=total damage to plant; 0=no damage to plant). Summed up:
as §2

For data set [14], the system named is Digitaria sanguinalis (DIGSA). The description is as above. It counts as in vivo. Conditions: 480 h, rate 250 g/ha, evaluated 20 days after spraying, read-out: Pre-emergence activity DIGSA (100=total damage to plant; 0=no damage to plant). Summed up:
as §2

The subject of data set [15] is Lolium perenne (LOLPE). The data set is described as above. It counts as in vivo. The settings on record: 480 h, rate 250 g/ha, evaluated 20 days after spraying, read-out: Pre-emergence activity LOLPE (100=total damage to plant; 0=no damage to plant). Summed up: as §2
Data set [16] deals with Avena fatua (AVEFA). The description is as above. The class given is in vivo. Conditions: 480 h, rate 250 g/ha, evaluated 20 days after spraying, read-out: Pre-emergence activity AVEFA (100=total damage to plant; 0=no damage to plant). Summed up:
as §2

In data set [17] the test system is Echinochloa crus-galli (ECHCG). Briefly: Example A post-emergence herbicidal activity, glasshouse pot test. It counts as in vivo. Conditions: 360 h, rate 125 g/ha, evaluated 15 days after spraying, read-out: Post-emergence activity ECHCG (100=total damage to plant; 0=no damage to plant). In outline: as §2
The test system of data set [18] is Setaria faberi (SETFA). Described as above. It counts as in vivo. Conditions: 360 h, rate 125 g/ha, evaluated 15 days after spraying, read-out: Post-emergence activity SETFA (100=total damage to plant; 0=no damage to plant). In outline: as §2
Data set [19] concerns Alopecurus myosuroides (ALOMY). The description is as above. The settings on record: 360 h, rate 125 g/ha, evaluated 15 days after spraying, read-out: Post-emergence activity ALOMY (100=total damage to plant; 0=no damage to plant). The class given is in vivo. In outline: as §2
The subject of data set [20] is Digitaria sanguinalis (DIGSA). Described as above. The class given is in vivo. The settings on record: 360 h, rate 125 g/ha, evaluated 15 days after spraying, read-out: Post-emergence activity DIGSA (100=total damage to plant; 0=no damage to plant). In outline:
as §2

The test system of data set [21] is Lolium perenne (LOLPE). The description is as above. The settings on record: 360 h, rate 125 g/ha, evaluated 15 days after spraying, read-out: Post-emergence activity LOLPE (100=total damage to plant; 0=no damage to plant). It counts as in vivo. Summed up:
as §2

For data set [22], the system named is Avena fatua (AVEFA). The description is as above. It counts as in vivo. The settings on record: 360 h, rate 125 g/ha, evaluated 15 days after spraying, read-out: Post-emergence activity AVEFA (100=total damage to plant; 0=no damage to plant). In outline: as §2

By melting point is commonly meant the temperature, or range, at which the solid turns liquid. Compound `CCc1ccc(-c2ccc(Cl)cc2)cc1C1=C(O)C(C)(C)OC(C)(COC)C1=O` (stereo not drawn) [Compound A-99] displayed a melting point of 123 to 124 °C. Moreover, the pest or weed control at 250 g/ha in data set [1] turned out to be 100%. In addition, the pest or weed control at 250 g/ha in the data set on Setaria faberi (SETFA) [2] is 100%. In addition, the pest or weed control at 250 g/ha in [3] is 90%. For the same compound, the pest or weed control at 250 g/ha in data set [4] stood at 0%. Also, in the data set with Avena fatua (AVEFA) [5], the pest or weed control at 250 g/ha came out at 90%. Also, the pest or weed control at 250 g/ha in data set [6] was 100%. In addition, in the data set with Setaria faberi (SETFA) [7], the pest or weed control at 250 g/ha stood at 100%. Moreover, the pest or weed control at 250 g/ha in data set [8] worked out at 80%. For the same compound, the pest or weed control at 250 g/ha in [9] came to 20%. Moreover, the pest or weed control at 250 g/ha with Avena fatua (AVEFA) [10] worked out at 50%.

On to `CCc1ccc(-c2ccc(F)cc2)cc1C1=C(O)[C@@]2(C)CC[C@H](O2)C1=O` [Compound A-38], for which the melting point fell in the range of 165 to 167 °C. Further, the pest or weed control at 250 g/ha in data set [11] amounted to 70%. The pest or weed control at 250 g/ha in the data set with Setaria faberi (SETFA) [12] worked out at 90%. Further, in data set [13], the pest or weed control at 250 g/ha was 50%. Also, the pest or weed control at 250 g/ha in [14] was determined as 30%. Further, the pest or weed control at 250 g/ha in the data set with Lolium perenne (LOLPE) [15] came to 60%. Besides, the pest or weed control at 250 g/ha with Avena fatua (AVEFA) [16] stood at 10%. Also, in data set [17], the pest or weed control at 125 g/ha was 90%. The pest or weed control at 125 g/ha in the data set with Setaria faberi (SETFA) [18] came out at 80%. Also, the pest or weed control at 125 g/ha in data set [19] was determined as 50%. In data set [20], the pest or weed control at 125 g/ha was 70%. Also, in the data set on Lolium perenne (LOLPE) [21], the pest or weed control at 125 g/ha amounted to 0%. In the data set with Avena fatua (AVEFA) [22], the pest or weed control at 125 g/ha worked out at 60%.

The values are drawn from US8680012B2, “4-phenyl-pyrane-3,5-diones,4-phenyl-thiopyrane-3,6-diones and cyclohexanetriones as novel herbicides” (Syngenta Crop Protection LLC, priority 2006, dated 2014).
